In patent publication US20250122219A1 (priority 2023, published 2025):
≈ marks a conversion by molar mass, not a printed value. Read-outs that look alike come from different tables or passages of the source.

Assays:
HIV-1 (IIIB) = assay: Antiviral assay in MT-4 cells; type: cell-based
Summary of the method: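 Read-out: CellTiter-Glo luminescence after 5 days at 37 °C, reflecting survival of MT-4 cells infected with HIV-1 IIIB (1:250 fresh stock dilution) versus mock-infected. Compounds serially diluted into RPMI with 10% FBS; AZT at 5 μM served as positive control.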

[1] = Cytotoxicity assay in MT-4 cells; type: cell-based; conditions: human; uninfected MT-4 cells, 5 days incubation, Cell Titer Glo; read-out: MT4 CC50
Summary of the method: (§1)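 Viability read by Cell Titer Glo luminescence after 5 days at 37 °C. MT-4 cells, not infected, in complete RPMI (10% FBS), received compound dilution series. Base cytotoxicity set with […] puromycin.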

physchem = type: physicochemical; conditions: ambient temperature, 5 mg/mL dose concentration; for solubility thermodynamic / solubility thermodynamic at 24 h: 23 °C, thermodynamic from solid; for solubility thermodynamic: aqueous buffer; for solubility thermodynamic / Thermodynamic PBS Solubility (mg/mL): PBS; for solubility thermodynamic at 24 h: FaSSIF
Procedure: Approximately 7 mg of each test compound as a dry powder was placed in a vial. Aliquots were weighed out for each assay media at 2 hour and 24 hour time points, to be analyzed. The appropriate buffer (FaSSIF or PBS) was added to each vial such that the final dose concentration of 5 mg/mL was achieved. […] The plate was sealed with a pierceable heat seal and analyzed by HPLC-UV.
A system QC (0.01 mg/mL Caffeine in DMSO) was injected every 12-15 injections. […] Results are reported using data obtained at 280 nm. The resulting peak areas were plotted against the known concentrations from the calibration and the filtrates are quantified with respect to the linear regression using Agilent OpenLab Intelligent Reporting Software. The results are reported electronically in mg/mL.

MT-4 cells = assay: Cytotoxicity assay in MT-4 cells; type: cell-based; conditions: uninfected MT-4 cells, 5 days incubation, Cell Titer Glo; read-out: MT4 CC50
Summary of the method: as §1

[2] = Human immunodeficiency virus 1, MT4, 120 h, HIV-1 IIIB in MT-4 cells, 5 days incubation, Cell Titer Glo, read-out: MT4 EC50

| EC50 (HIV-1 (IIIB); [2]) | solubility thermodynamic (physchem) | solubility thermodynamic at 24 h (physchem) | Thermodynamic PBS Solubility (mg/mL) (physchem) | SMILES | CC50 at 5 days [1] | EC50 (HIV-1 (IIIB); Human immunodeficiency virus 1, IIIB, MT4, 120 h, read-out: MT4 EC50 (nM)) | EC50 (HIV-1 (IIIB); HIV-1 IIIB in MT-4 cells, 5 days incubation, Cell Titer Glo, read-out: MT4 EC50) | CC50 (MT-4 cells) |
| --- | --- | --- | --- | --- | --- | --- | --- | --- |
| 1.28 nM | – | – | <LOD | CCCCC(=O)Oc1c2n(cc(C(=O)NCc3ccc(F)cc3F)c1=O)[C@@H]1CN(C2=O)[C@@H](C)CC[C@]12CC(C)=NO2 [Example 17, (3′S,5S,7′R)-10′-((2,4-difluorobenzyl)carbamoyl)-3,3′-dimethyl-1′,11′-dioxo-1′,4′,5′,11′-tetrahydro-3′H,4H,7′H-spiro[isoxazole-5,6′-[2,7]methanopyrido[1,2-a][1,4]diazonin]-12′-yl pentanoate] | 10200 nM | – | – | – |
| 1.53 nM | – | 83 µg/mL (≈ 145 µM) | – | CC1=NO[C@@]2(CC[C@H](C)N3C[C@H]2n2cc(C(=O)NCc4ccc(F)cc4F)c(=O)c(OC(=O)C(C)(C)C)c2C3=O)C1 [Example 19, (3′S,5S,7′R)-10′-((2,4-difluorobenzyl)carbamoyl)-3,3′-dimethyl-1′,11′-dioxo-1′,4′,5′,11′-tetrahydro-3′H,4H,7′H-spiro[isoxazole-5,6′-[2,7]methanopyrido[1,2-a][1,4]diazonin]-12′-yl pivalate] | 12300 nM | – | – | – |
| 0.992 nM | 34 µg/mL (≈ 59.4 µM) | 70 µg/mL (≈ 122 µM) | – | CC1=NO[C@@]2(CC[C@H](C)N3C[C@H]2n2cc(C(=O)NCc4ccc(F)cc4F)c(=O)c(OC(=O)OC(C)C)c2C3=O)C1 [Example 22, (3′S,5S,7′R)-10′-((2,4-difluorobenzyl)carbamoyl)-3,3′-dimethyl-1′,11′-dioxo-1′,4′,5′,11′-tetrahydro-3′H,4H,7′H-spiro[isoxazole-5,6′-[2,7]methanopyrido[1,2-a][1,4]diazonin]-12′-yl isopropyl carbonate] | 12500 nM | – | – | – |
| 5.17 nM | – | 8 µg/mL (≈ 13.3 µM) | – | CC1=NO[C@@]2(CC[C@H](C)N3C[C@H]2n2cc(C(=O)NCc4ccc(F)cc4F)c(=O)c(OCOC(=O)OC(C)C)c2C3=O)C1 [Example 24, (((3′S,5S,7′R)-10′-((2,4-difluorobenzyl)carbamoyl)-3,3′-dimethyl-1′,11′-dioxo-1′,4′,5′,11′-tetrahydro-3′H,4H,7′H-spiro[isoxazole-5,6′-[2,7]methanopyrido[1,2-a][1,4]diazonin]-12′-yl)oxy)methyl isopropyl carbonate] | 31700 nM | – | – | – |

Second part, the compound before the results:

| SMILES | EC50 (HIV-1 (IIIB); [2]) | solubility thermodynamic (physchem) | solubility thermodynamic at 24 h (physchem) | Thermodynamic PBS Solubility (mg/mL) (physchem) | CC50 at 5 days [1] | EC50 (HIV-1 (IIIB); Human immunodeficiency virus 1, IIIB, MT4, 120 h, read-out: MT4 EC50 (nM)) | EC50 (HIV-1 (IIIB); HIV-1 IIIB in MT-4 cells, 5 days incubation, Cell Titer Glo, read-out: MT4 EC50) | CC50 (MT-4 cells) |
| --- | --- | --- | --- | --- | --- | --- | --- | --- |
| COCCOC(=O)OCOc1c2n(cc(C(=O)NCc3ccc(F)cc3F)c1=O)[C@@H]1CN(C2=O)[C@@H](C)CC[C@]12CC(OC)=NO2 [Example 5, (((3′S,5S,7′R)-10′-((2,4-difluorobenzyl)carbamoyl)-3-methoxy-3′-methyl-1′,11′-dioxo-1′,4′,5′,11′-tetrahydro-3′H,4H,7′H-spiro[isoxazole-5,6′-[2,7]methanopyrido[1,2-a][1,4]diazonin]-12′-yl)oxy)methyl (2-methoxyethyl) carbonate] | 4.08 nM | 39 µg/mL (≈ 61.5 µM) | 168 µg/mL (≈ 265 µM) | – | 39800 nM | – | – | – |
| COCCOCCOC(=O)Oc1c2n(cc(C(=O)NCc3ccc(F)cc3F)c1=O)[C@@H]1CN(C2=O)[C@@H](C)CC[C@]12CC(C)=NO2 [Example 8, (3′S,5S,7′R)-10′-((2,4-difluorobenzyl)carbamoyl)-3,3′-dimethyl-1′,11′-dioxo-1′,4′,5′,11′-tetrahydro-3′H,4H,7′H-spiro[isoxazole-5,6′-[2,7]methanopyrido[1,2-a][1,4]diazonin]-12′-yl (2-(2-methoxyethoxy)ethyl) carbonate] | – | – | 486 µg/mL (≈ 768 µM) | – | 11700 nM | 0.632 nM | – | – |
| COCCOC(=O)OCOc1c2n(cc(C(=O)NCc3ccc(F)cc3F)c1=O)[C@@H]1CN(C2=O)[C@@H](C)CC[C@]12CC(C)=NO2 [Example 10, (((3′S,5S,7′R)-10′-((2,4-difluorobenzyl)carbamoyl)-3,3′-dimethyl-1′,11′-dioxo-1′,4′,5′,11′-tetrahydro-3′H,4H,7′H-spiro[isoxazole-5,6′-[2,7]methanopyrido[1,2-a][1,4]diazonin]-12′-yl)oxy)methyl (2-methoxyethyl) carbonate] | 6.4 nM | 15 µg/mL (≈ 24.2 µM) | 35 µg/mL (≈ 56.6 µM) | – | 31700 nM | – | – | – |
| COC(=O)OCOc1c2n(cc(C(=O)NCc3ccc(F)cc3F)c1=O)[C@@H]1CN(C2=O)[C@@H](C)CC[C@]12CC(OC)=NO2 [Example 11, (((3′S,5S,7′R)-10′-((2,4-difluorobenzyl)carbamoyl)-3-methoxy-3′-methyl-1′,11′-dioxo-1′,4′,5′,11′-tetrahydro-3′H,4H,7′H-spiro[isoxazole-5,6′-[2,7]methanopyrido[1,2-a][1,4]diazonin]-12-yl)oxy)methyl methyl carbonate] | – | – | – | – | – | – | 8.34 nM | 36800 nM |
| COC(=O)OCOc1c2n(cc(C(=O)NCc3ccc(F)cc3F)c1=O)[C@@H]1CN(C2=O)[C@@H](C)CC[C@]12CC(C)=NO2 [Example 12, (((3′S,5S,7′R)-10′-((2,4-difluorobenzyl)carbamoyl)-3,3′-dimethyl-1′,11′-dioxo-1′,4′,5′,11′-tetrahydro-3′H,4H,7′H-spiro[isoxazole-5,6′-[2,7]methanopyrido[1,2-a][1,4]diazonin]-12′-yl)oxy)methyl methyl carbonate] | 3.81 nM | – | 30 µg/mL (≈ 52.2 µM) | – | 25900 nM | – | – | – |
| CCCCCCCCCCCCCCCCCC(=O)Oc1c2n(cc(C(=O)NCc3ccc(F)cc3F)c1=O)[C@@H]1CN(C2=O)[C@@H](C)CC[C@]12CC(C)=NO2 [Example 15, (3′S,5S,7′R)-10′-((2,4-difluorobenzyl)carbamoyl)-3,3′-dimethyl-1′,11′-dioxo-1′,4′,5′,11′-tetrahydro-3′H,4H,7′H-spiro[isoxazole-5,6′-[2,7]methanopyrido[1,2-a][1,4]diazonin]-12′-yl stearate] | 6.36 nM | – | – | <LOD | ≥ 50000 nM | – | – | – |
| CC(=O)Oc1c2n(cc(C(=O)NCc3ccc(F)cc3F)c1=O)[C@@H]1CN(C2=O)[C@@H](C)CC[C@]12CC(C)=NO2 [Example 16, (3′S,5S,7′R)-10′-((2,4-difluorobenzyl)carbamoyl)-3,3′-dimethyl-1′,11′-dioxo-1′,4′,5′,11′-tetrahydro-3′H,4H,7′H-spiro[isoxazole-5,6′-[2,7]methanopyrido[1,2-a][1,4]diazonin]-12′-yl acetate] | 1.3 nM | 372 µg/mL | 270 µg/mL | – | 11200 nM | – | – | – |
